Reference: patent publication US4140849A, “Kanamycin C derivatives” (Zaidan Hojin Biseibutsu Kagaku Kenkyu Kai, priority 1977, dated 1979)
Values after ≈ are worked out from the molar mass of the structure shown. Read-outs that look alike come from different tables or passages of the source.

Assays:
6'-acetyltransferase = details: cited from earlier work; for acetylation by a 6'-acetyltransferase: enzyme obtained from aminoglycoside-resistant strains, such as Pseudomonas aeruginosa GN315
[1] = tested on: resistant bacteria producing the 2"-nucleotidyltransferase; details: prior compounds; cited from earlier work
[2] = tested on: resistant bacteria producing the aminoglycoside 6'-acetyltransferase; details: cited from earlier work
[3] = tested on: resistant bacteria producing aminoglycoside 3'-phosphotransferase; details: cited from earlier work
[4] = tested on: Pseudomonas aeruginosa A3; assay: Minimum inhibitory concentration, serial dilution on nutrient agar; type: cell-based; details: read-out: Minimum Inhibitory Concentrations
Experimental: (§1) The minimum inhibitory concentrations (mcg/ml.) of 1-N-(L-4-amino-2-hydroxybutyryl)-kanamycin C (abbreviated as AHB-KC), 1-N-(L-4-amino-2-hydroxybutyryl)-3'-deoxykanamycin C (abbreviated as AHB-DKC) and 1-N-(L-4-amino-2-hydroxybutyryl)-3',4'-dideoxykanamycin C (abbreviated as AHB-DDKC) against various microorganisms were determined according to serial dilution method on nutrient agar medium at 37° C., the estimation being effected after 18 hours incubation. For comparison, the minimum inhibitory concentrations of 1-N-(L-4-amino-2-hydroxybutyryl)-kanamycin A (amikacin) was also determined in the same manner as described above.

[5] = tested on: Pseudomonas aeruginosa No. 12; assay: as above; type: cell-based; details: read-out: Minimum Inhibitory Concentrations
Experimental: as §1

[6] = tested on: Escherichia coli LA 290 R56; assay: as above; type: cell-based; details: LA290R56, 18 h, read-out: Minimum Inhibitory Concentrations
Experimental: as §1

[7] = tested on: Escherichia coli K-12 ML 1410; assay: as above; type: cell-based; details: K12ML1410, 37° C., 18 hours, read-out: Minimum Inhibitory Concentrations
Experimental: as §1

[8] = tested on: Escherichia coli K-12 ML 1630; assay: as above; type: cell-based; details: K12ML1630, 37° C., 18 hours, read-out: Minimum Inhibitory Concentrations
Experimental: as §1

[9] = tested on: Pseudomonas aeruginosa TI-13; assay: as above; type: cell-based; details: read-out: Minimum Inhibitory Concentrations
Experimental: as §1

[10] = tested on: Klebsiella pneumoniae 22 No. 3038; assay: as above; type: cell-based; details: read-out: Minimum Inhibitory Concentrations
Experimental: as §1

[11] = tested on: Klebsiella pneumoniae PCI 602; assay: as above; type: cell-based; details: PCI602, 37° C., 18 hours, read-out: Minimum Inhibitory Concentrations
Experimental: as §1

[12] = tested on: Staphylococcus aureus FDA 209P; assay: as above; type: cell-based; details: FDA209P, 37° C., 18 hours, read-out: Minimum Inhibitory Concentrations
Experimental: as §1

Escherichia coli K-12 = assay: as above; type: cell-based; details: K12, 37° C., 18 hours, read-out: Minimum Inhibitory Concentrations
Experimental: as §1

[13] = tested on: Pseudomonas aeruginosa GN 315; assay: as above; type: cell-based; details: GN315, 37° C., 18 hours, read-out: Minimum Inhibitory Concentrations
Experimental: as §1

Escherichia coli K-12 R5 = assay: as above; type: cell-based; details: K12R5, 18 h, read-out: Minimum Inhibitory Concentrations
Experimental: as §1

[14] = tested on: Pseudomonas aeruginosa 99; assay: as above; type: cell-based; details: 37° C., 18 hours, read-out: Minimum Inhibitory Concentrations
Experimental: as §1

[15] = tested on: Escherichia coli LA 290 R55; assay: as above; type: cell-based; details: LA290R55, 18 h, read-out: Minimum Inhibitory Concentrations
Experimental: as §1

[16] = tested on: Mycobacterium smegmatis ATCC 607; assay: as above; type: cell-based; details: Mycolicibacterium smegmatis, ATCC607, 37° C., 18 hours, read-out: Minimum Inhibitory Concentrations
Experimental: as §1

Escherichia coli NIHJ = assay: as above; type: cell-based; details: 37° C., 18 hours, read-out: Minimum Inhibitory Concentrations
Experimental: as §1

[17] = tested on: Escherichia coli LA 290 R64; assay: as above; type: cell-based; details: LA290R64, 18 h, read-out: Minimum Inhibitory Concentrations
Experimental: as §1

[18] = tested on: Pseudomonas aeruginosa H 11; assay: as above; type: cell-based; details: H11, 37° C., 18 hours, read-out: Minimum Inhibitory Concentrations
Experimental: as §1

[19] = tested on: Escherichia coli K-12 ML 1410 R81; assay: as above; type: cell-based; details: 18 h, read-out: Minimum Inhibitory Concentrations
Experimental: as §1

[20] = tested on: Escherichia coli JR 66/W677; assay: as above; type: cell-based; details: read-out: Minimum Inhibitory Concentrations
Experimental: as §1

Escherichia coli W 677 = assay: as above; type: cell-based; details: W677, 37° C., 18 hours, read-out: Minimum Inhibitory Concentrations
Experimental: as §1

[21] = tested on: Escherichia coli K-12 ML 1629; assay: as above; type: cell-based; details: K12ML1629, 37° C., 18 hours, read-out: Minimum Inhibitory Concentrations
Experimental: as §1

[22] = LD50 upon intravenous injection in mice; details: mouse, in vivo, estimated
[23] = Pseudomonas aeruginosa A3, nutrient agar, 37° C., 18 hours
[24] = Pseudomonas aeruginosa No. 12, nutrient agar, 37° C., 18 hours
[25] = TI13, Pseudomonas aeruginosa TI-13, nutrient agar, 37° C., 18 hours
[26] = Klebsiella pneumoniae 22 No. 3038, nutrient agar, 37° C., 18 hours
[27] = JR66/W677, Escherichia coli JR 66/W677, nutrient agar, 37° C., 18 hours

Structure (SMILES)	growth inhibition of resistant bacteria producing the 2"-nucleotidyltransferase [1]	MIC [4, 23] [mg/L]	MIC [5, 24] [mg/L]	MIC [6] [mg/L]	MIC [7] [mg/L]	MIC [8] [mg/L]	MIC [11] [mg/L]	MIC [12] [mg/L]	MIC (Escherichia coli K-12) [mg/L]	MIC [13] [mg/L]	MIC (Escherichia coli K-12 R5) [mg/L]	MIC [14] [mg/L]	MIC [15] [mg/L]	MIC [16] [mg/L]	MIC (Escherichia coli NIHJ) [mg/L]	MIC [17] [mg/L]	MIC [18] [mg/L]	MIC [19] [mg/L]	MIC (Escherichia coli W 677) [mg/L]	MIC [21] [mg/L]	other results
NCCC(O)C(=O)NC1CC(N)C(OC2OC(CN)C(O)C(O)C2N)C(O)C1OC1OC(CO)C(O)C(N)C1O [1-N-(L-4-amino-2-hydroxybutyryl)-kanamycin B]																					acetylation by a 6'-acetyltransferase (6'-acetyltransferase): acetylated
NC1CCC(CO)OC1OC1C(N)CC(N)C(OC2OC(CO)C(O)C(N)C2O)C1O (stereo not drawn) [3',4 '-dideoxykanamycin C, 3',4'-dideoxykanamycin C]	not able to inhibit the growth																				
NCC1CCC(N)C(OC2C(N)CC(N)C(OC3OC(CO)C(O)C(N)C3O)C2O)O1 (stereo not drawn) [3',4'-dideoxykanamycin B]	do not inhibit the growth																				growth inhibition of resistant bacteria producing the aminoglycoside 6'-acetyltransferase [2]: do not inhibit the growth; activity against resistant bacteria producing aminoglycoside 3'-phosphotransferase [3]: active against the resistant bacteria
NCC1OC(OC2C(N)CC(N)C(OC3OC(CO)C(O)C(N)C3O)C2O)C(N)CC1O (stereo not drawn) [3'-deoxykanamycin B]	do not inhibit the growth																				growth inhibition of resistant bacteria producing the aminoglycoside 6'-acetyltransferase [2]: do not inhibit the growth; activity against resistant bacteria producing aminoglycoside 3'-phosphotransferase [3]: active against the resistant bacteria
NC1CC(O)C(CO)OC1OC1C(N)CC(N)C(OC2OC(CO)C(O)C(N)C2O)C1O (stereo not drawn) [3'-deoxykanamycin C]	not able to inhibit the growth																				
NCCC(O)C(=O)NC1CC(N)C(OC2OC(CO)CCC2N)C(O)C1OC1OC(CO)C(O)C(N)C1O [AHB-DDKC, 1-N-(L-4-amino-2-hydroxybutyryl)-3',4'-dideoxykanamycin C]		12.5 (≈ 22.6 µM)	100 (≈ 181 µM)	6.25 (≈ 11.3 µM)	25 (≈ 45.2 µM)	12.5 (≈ 22.6 µM)	6.25 (≈ 11.3 µM)	12.5 (≈ 22.6 µM)	12.5 (≈ 22.6 µM)	100 (≈ 181 µM)	12.5 (≈ 22.6 µM)	100 (≈ 181 µM)	12.5 (≈ 22.6 µM)	6.25 (≈ 11.3 µM)	12.5 (≈ 22.6 µM)	12.5 (≈ 22.6 µM)	100 (≈ 181 µM)	25 (≈ 45.2 µM)	12.5 (≈ 22.6 µM)	6.25 (≈ 11.3 µM)	MIC [9, 25]: 100 mg/L (≈ 181 µM); MIC [10, 26]: 25 mg/L (≈ 45.2 µM); MIC [20, 27]: 25 mg/L (≈ 45.2 µM)
NCCC(O)C(=O)NC1CC(N)C(OC2OC(CO)C(O)CC2N)C(O)C1OC1OC(CO)C(O)C(N)C1O [AHB-DKC, 1-N-(L-4-amino-2-hydroxybutyryl)-3'-deoxykanamycin C]		6.25 (≈ 11 µM)	50 (≈ 87.8 µM)	6.25 (≈ 11 µM)	6.25 (≈ 11 µM)	12.5 (≈ 21.9 µM)	3.13 (≈ 5.49 µM)	6.25 (≈ 11 µM)	6.25 (≈ 11 µM)	50 (≈ 87.8 µM)	6.25 (≈ 11 µM)	100 (≈ 176 µM)	12.5 (≈ 21.9 µM)	12.5 (≈ 21.9 µM)	6.25 (≈ 11 µM)	3.13 (≈ 5.49 µM)	50 (≈ 87.8 µM)	12.5 (≈ 21.9 µM)	6.25 (≈ 11 µM)	6.25 (≈ 11 µM)	MIC [9, 25]: 50 mg/L (≈ 87.8 µM); MIC [10, 26]: 6.25 mg/L (≈ 11 µM); MIC [20, 27]: 12.5 mg/L (≈ 21.9 µM); LD50 [22]: > 400 mg/kg
NCCC(O)C(=O)NC1CC(N)C(OC2OC(CO)C(O)C(O)C2N)C(O)C1OC1OC(CO)C(O)C(N)C1O [AHB-KC, 1-N-(L-4-amino-2-hydroxybutyryl)-kanamycin C]		12.5 (≈ 21.3 µM)	50 (≈ 85.4 µM)	6.25 (≈ 10.7 µM)	25 (≈ 42.7 µM)	12.5 (≈ 21.3 µM)	3.13 (≈ 5.34 µM)	6.25 (≈ 10.7 µM)	12.5 (≈ 21.3 µM)	50 (≈ 85.4 µM)	6.25 (≈ 10.7 µM)	100 (≈ 171 µM)	12.5 (≈ 21.3 µM)	3.13 (≈ 5.34 µM)	6.25 (≈ 10.7 µM)	12.5 (≈ 21.3 µM)	100 (≈ 171 µM)	12.5 (≈ 21.3 µM)	12.5 (≈ 21.3 µM)	6.25 (≈ 10.7 µM)	MIC [9, 25]: 50 mg/L (≈ 85.4 µM); MIC [10, 26]: 12.5 mg/L (≈ 21.3 µM); MIC [20, 27]: 25 mg/L (≈ 42.7 µM); LD50 [22]: > 400 mg/kg
NCC[C@H](O)C(=O)N[C@@H]1C[C@H](N)[C@@H](O[C@H]2O[C@H](CN)[C@@H](O)[C@H](O)[C@H]2O)[C@H](O)[C@H]1O[C@H]1O[C@H](CO)[C@@H](O)[C@H](N)[C@H]1O [Amikacin, 1-N-(L-4-amino-2-hydroxybutyryl)-kanamycin A, reference compound]				0.39 (≈ 0.666 µM)	0.78 (≈ 1.33 µM)	0.78 (≈ 1.33 µM)	0.39 (≈ 0.666 µM)	0.39 (≈ 0.666 µM)	0.78 (≈ 1.33 µM)	100 (≈ 171 µM)	0.39 (≈ 0.666 µM)	6.25 (≈ 10.7 µM)	0.78 (≈ 1.33 µM)	< 0.2	0.78 (≈ 1.33 µM)	0.39 (≈ 0.666 µM)	12.5 (≈ 21.3 µM)	1.56 (≈ 2.66 µM)	< 0.2	0.78 (≈ 1.33 µM)	acetylation by a 6'-acetyltransferase (6'-acetyltransferase): acetylated; MIC ([4]; Pseudomonas aeruginosa, A3, 18 h): 3.13 mg/L (≈ 5.34 µM); MIC ([5]; Pseudomonas aeruginosa, NO.12, 18 h): 3.13 mg/L (≈ 5.34 µM); MIC ([9]; Pseudomonas aeruginosa, TI13, 18 h): 3.13 mg/L (≈ 5.34 µM); MIC ([10]; Klebsiella pneumoniae, 22NO.3038, 18 h): 1.56 mg/L (≈ 2.66 µM); MIC ([20]; Escherichia coli, JR66/W677, 18 h): 1.56 mg/L (≈ 2.66 µM)
NC1CC(N)C(OC2OC(CO)C(O)C(N)C2O)C(O)C1OC1OC(CO)C(O)C(O)C1N (stereo not drawn) [kanamycin C]	not able to inhibit the growth																				inactivation by the 6'-acetyltransferase (6'-acetyltransferase; see co-pending applications): cannot be inactivated
